In US7262189B2, “Benzothiazine and benzothiadiazine derivatives, method for preparing same and pharmaceutical compositions containing same” (Les Laboratoires Server, priority 2001, dated 2007) one finds Concentration doubling (EC2×) or quintupling (EC5×) the AMPA current data, which are given here for one compound.

Like-named read-outs stand apart in the source and are kept apart here.

This experiment concerns AMPA receptors. Description: Excitatory fluxes induced by AMPA in Xenopus oocytes (2-electrode voltage-clamp). Type of experiment: cell-based. As to conditions: Xenopus oocytes injected with rat cerebral cortex poly-(A+) mRNA, AMPA 10 μM. As for the experimental part: Study of the Excitatory Fluxes Induced by AMPA in Xenopus oocytes
mRNAs are prepared from cerebral cortex of male Wistar rat by the guanidinium thiocyanate/phenol/chloroform method. The poly-(A^+) mRNAs are isolated by chromatography on oligo-dT cellulose and injected in an amount of 50 ng per oocyte. The oocytes are left to incubate for 2 to 3 days at 18° C. to allow expression of the receptors and are then stored at from 8 to 10° C.
Electrophysiological recording is carried out in a Plexiglass® chamber at from 20 to 24° C. in OR2 medium (J. Exp. Zool., 1973, 184, 321-334) by the 2-electrode “voltage-clamp” method, a 3rd electrode being placed in the bath to serve as reference.
All the compounds are administered via the incubation medium and the electric current is measured at the end of the period of administration. AMPA is used at a concentration of 10 μM. For each compound studied, the concentration that doubles (EC2×) or quintuples (EC5×) the intensity of the current induced by AMPA alone (5 to 50 nA) is determined.

Regarding `O=S1(=O)NC2CCCN2c2ccc(OC(=S)Oc3ccccc3)cc21` (centres unmarked) [Example 2, O-(5,5-Dioxido-2,3,3a,4-tetrahydro-1H-pyrrolo[2,1-c][1,2,4]-benzothiadiazin-7-yl)O-phenyl thiocarbonate], the Concentration doubling (EC2×) or quintupling (EC5×) the AMPA current is, setting by setting: (read-out: EC2× (concentration that doubles the intensity of the current induced by AMPA alone)) 1.8 µM; (read-out: EC5× (concentration that quintuples the intensity of the current induced by AMPA alone)) 9.6 µM.
